Here are results for 2 compounds from ChEMBL document CHEMBL3112480, “γ-Alkylidene-γ-lactones and isobutylpyrrol-2(5H)-ones analogues to rubrolides as inhibitors of biofilm formation by gram-positive and gram-negative bacteria” (Bioorg Med Chem Lett, 2014).

Bounds are passed on as bounds.

The test system of data set [1] is Streptococcus mutans. Briefly: Antibacterial activity against Streptococcus mutans OMZ175 assessed as inhibition of biofilm formation at 6 uM relative to control. In kind it is functional.
For data set [2], the system named is Streptococcus mutans. Kind of data set: Antibacterial activity against Streptococcus mutans ATCC 25175 assessed as effect on planktonic growth at 21.9 ug/ml after 20 hrs relative to control. In kind it is functional.
Data set [3] has as its system Streptococcus mutans. Kind of data set: Antibacterial activity against Streptococcus mutans ATCC 25175 assessed as effect on planktonic growth at 43.8 ug/ml after 20 hrs relative to control. It is filed as functional.
Data set [4] deals with Streptococcus mutans. Briefly: Antibacterial activity against Streptococcus mutans ATCC 25175 assessed as effect on planktonic growth at 87.5 ug/ml after 20 hrs relative to control. It is filed as functional.
In data set [5] the test system is Staphylococcus aureus. Briefly: Antibacterial activity against Staphylococcus aureus ATCC 25923 assessed as effect on planktonic growth at 0.17 ug/ml after 20 hrs relative to control. It is filed as functional.
For data set [6], the system named is Staphylococcus aureus. Kind of data set: Antibacterial activity against Staphylococcus aureus ATCC 25923 assessed as effect on planktonic growth at 0.34 ug/ml after 20 hrs relative to control. It is filed as functional.
Data set [7] relates to Staphylococcus aureus. Kind of data set: Antibacterial activity against Staphylococcus aureus ATCC 25923 assessed as effect on planktonic growth at 0.68 ug/ml after 20 hrs relative to control. In kind it is functional.
In data set [8] the test system is Staphylococcus aureus. Kind of data set: Antibacterial activity against Staphylococcus aureus ATCC 25923 assessed as effect on planktonic growth at 1.37 ug/ml after 20 hrs relative to control. In kind it is functional.
Data set [9] deals with Staphylococcus aureus. Briefly: Antibacterial activity against Staphylococcus aureus ATCC 25923 assessed as effect on planktonic growth at 5.5 ug/ml after 20 hrs relative to control. In kind it is functional.
Data set [10] deals with Staphylococcus aureus. Kind of data set: Antibacterial activity against Staphylococcus aureus ATCC 25923 assessed as effect on planktonic growth at 2.73 ug/ml after 20 hrs relative to control. In kind it is functional.
In data set [11] the test system is Staphylococcus aureus. Briefly: Antibacterial activity against Staphylococcus aureus ATCC 25923 assessed as effect on planktonic growth at 10.9 ug/ml after 20 hrs relative to control. It is filed as functional.
Data set [12] concerns Staphylococcus aureus. Kind of data set: Antibacterial activity against Staphylococcus aureus ATCC 25923 assessed as effect on planktonic growth at 21.9 ug/ml after 20 hrs relative to control. It is filed as functional.
The test system of data set [13] is Staphylococcus aureus. Kind of data set: Antibacterial activity against Staphylococcus aureus ATCC 25923 assessed as effect on planktonic growth at 43.8 ug/ml after 20 hrs relative to control. In kind it is functional.
The test system of data set [14] is Staphylococcus aureus. Kind of data set: Antibacterial activity against Staphylococcus aureus ATCC 25923 assessed as effect on planktonic growth at 87.5 ug/ml after 20 hrs relative to control. In kind it is functional.
For data set [15], the system named is Pseudomonas aeruginosa. Briefly: Antibacterial activity against Pseudomonas aeruginosa ATCC 27853 assessed as effect on planktonic growth at 0.17 ug/ml after 20 hrs relative to control. In kind it is functional.
Data set [16] relates to Pseudomonas aeruginosa. Kind of data set: Antibacterial activity against Pseudomonas aeruginosa ATCC 27853 assessed as effect on planktonic growth at 0.34 ug/ml after 20 hrs relative to control. In kind it is functional.
Data set [17] concerns Pseudomonas aeruginosa. Briefly: Antibacterial activity against Pseudomonas aeruginosa ATCC 27853 assessed as effect on planktonic growth at 0.68 ug/ml after 20 hrs relative to control. In kind it is functional.
Data set [18] relates to Pseudomonas aeruginosa. Briefly: Antibacterial activity against Pseudomonas aeruginosa ATCC 27853 assessed as effect on planktonic growth at 1.37 ug/ml after 20 hrs relative to control. It is filed as functional.
In data set [19] the test system is Pseudomonas aeruginosa. Briefly: Antibacterial activity against Pseudomonas aeruginosa ATCC 27853 assessed as effect on planktonic growth at 2.73 ug/ml after 20 hrs relative to control. In kind it is functional.
Data set [20] concerns Pseudomonas aeruginosa. Briefly: Antibacterial activity against Pseudomonas aeruginosa ATCC 27853 assessed as effect on planktonic growth at 5.5 ug/ml after 20 hrs relative to control. In kind it is functional.
Data set [21] relates to Pseudomonas aeruginosa. Kind of data set: Antibacterial activity against Pseudomonas aeruginosa ATCC 27853 assessed as effect on planktonic growth at 10.9 ug/ml after 20 hrs relative to control. In kind it is functional.
The test system of data set [22] is Pseudomonas aeruginosa. Briefly: Antibacterial activity against Pseudomonas aeruginosa ATCC 27853 assessed as effect on planktonic growth at 21.9 ug/ml after 20 hrs relative to control. It is filed as functional.
Data set [23] deals with Pseudomonas aeruginosa. Briefly: Antibacterial activity against Pseudomonas aeruginosa ATCC 27853 assessed as effect on planktonic growth at 43.8 ug/ml after 20 hrs relative to control. In kind it is functional.
The test system of data set [24] is Pseudomonas aeruginosa. Briefly: Antibacterial activity against Pseudomonas aeruginosa ATCC 27853 assessed as effect on planktonic growth at 87.5 ug/ml after 20 hrs relative to control. In kind it is functional.
For data set [25], the system named is Staphylococcus epidermidis. Briefly: Antibacterial activity against Staphylococcus epidermidis ATCC 35547 assessed as effect on planktonic growth at 0.17 ug/ml after 20 hrs relative to control. It is filed as functional.
For data set [26], the system named is Staphylococcus epidermidis. Kind of data set: Antibacterial activity against Staphylococcus epidermidis ATCC 35547 assessed as effect on planktonic growth at 0.34 ug/ml after 20 hrs relative to control. It is filed as functional.
Data set [27] deals with Staphylococcus epidermidis. Kind of data set: Antibacterial activity against Staphylococcus epidermidis ATCC 35547 assessed as effect on planktonic growth at 0.68 ug/ml after 20 hrs relative to control. In kind it is functional.
Data set [28] deals with Staphylococcus epidermidis. Briefly: Antibacterial activity against Staphylococcus epidermidis ATCC 35547 assessed as effect on planktonic growth at 1.37 ug/ml after 20 hrs relative to control. It is filed as functional.
The test system of data set [29] is Staphylococcus epidermidis. Kind of data set: Antibacterial activity against Staphylococcus epidermidis ATCC 35547 assessed as effect on planktonic growth at 2.73 ug/ml after 20 hrs relative to control. In kind it is functional.
The test system of data set [30] is Staphylococcus epidermidis. Briefly: Antibacterial activity against Staphylococcus epidermidis ATCC 35547 assessed as effect on planktonic growth at 5.5 ug/ml after 20 hrs relative to control. In kind it is functional.
Data set [31] deals with Staphylococcus epidermidis. Briefly: Antibacterial activity against Staphylococcus epidermidis ATCC 35547 assessed as effect on planktonic growth at 10.9 ug/ml after 20 hrs relative to control. It is filed as functional.
Data set [32] concerns Staphylococcus epidermidis. Briefly: Antibacterial activity against Staphylococcus epidermidis ATCC 35547 assessed as effect on planktonic growth at 21.9 ug/ml after 20 hrs relative to control. In kind it is functional.
Data set [33] relates to Staphylococcus epidermidis. Briefly: Antibacterial activity against Staphylococcus epidermidis ATCC 35547 assessed as effect on planktonic growth at 43.8 ug/ml after 20 hrs relative to control. In kind it is functional.
Data set [34] has as its system Staphylococcus epidermidis. Briefly: Antibacterial activity against Staphylococcus epidermidis ATCC 35547 assessed as effect on planktonic growth at 87.5 ug/ml after 20 hrs relative to control. In kind it is functional.
The subject of data set [35] is Streptococcus mutans. Kind of data set: Induction of biofilm formation in Streptococcus mutans ATCC 25175 at 44 ug/ml after 20 hrs by crystal-violet staining method relative to control.
Data set [36] relates to Pseudomonas aeruginosa. Briefly: Antibacterial activity against Pseudomonas aeruginosa ATCC 27853 assessed as inhibition of biofilm formation after 20 hrs by crystal-violet staining method. It is filed as functional, organism-based.
The subject of data set [37] is Staphylococcus epidermidis. Kind of data set: Antibacterial activity against Staphylococcus epidermidis ATCC 35547 assessed as inhibition of biofilm formation after 20 hrs by crystal-violet staining method. In kind it is functional, organism-based.
The test system of data set [38] is Streptococcus mutans. Kind of data set: Antibacterial activity against Streptococcus mutans ATCC 25175 assessed as effect on planktonic growth at 0.17 ug/ml after 20 hrs relative to control. It is filed as functional.
For data set [39], the system named is Streptococcus mutans. Briefly: Antibacterial activity against Streptococcus mutans ATCC 25175 assessed as effect on planktonic growth at 0.34 ug/ml after 20 hrs relative to control. In kind it is functional.
For data set [40], the system named is Streptococcus mutans. Briefly: Antibacterial activity against Streptococcus mutans ATCC 25175 assessed as effect on planktonic growth at 0.68 ug/ml after 20 hrs relative to control. In kind it is functional.
Data set [41] concerns Streptococcus mutans. Kind of data set: Antibacterial activity against Streptococcus mutans ATCC 25175 assessed as effect on planktonic growth at 1.37 ug/ml after 20 hrs relative to control. It is filed as functional.
Data set [42] has as its system Streptococcus mutans. Briefly: Antibacterial activity against Streptococcus mutans ATCC 25175 assessed as effect on planktonic growth at 2.73 ug/ml after 20 hrs relative to control. In kind it is functional.
The test system of data set [43] is Streptococcus mutans. Kind of data set: Antibacterial activity against Streptococcus mutans ATCC 25175 assessed as effect on planktonic growth at 5.5 ug/ml after 20 hrs relative to control. In kind it is functional.
The test system of data set [44] is Streptococcus mutans. Kind of data set: Antibacterial activity against Streptococcus mutans ATCC 25175 assessed as effect on planktonic growth at 10.9 ug/ml after 20 hrs relative to control. In kind it is functional.

For orientation: inhibition means the relative decrease from the control value, in per cent. On to `O=C1C=C/C(=C/Br)O1`, for which the inhibition at 6 µM in the data set on Streptococcus mutans [1] is 26%.

In general, IC50 refers to the concentration at which inhibition is half-maximal. As for `COc1ccc(C)cc1C1=C(Br)C(=O)O/C1=C\c1cccc(Cl)c1`, the Activity in the data set with Streptococcus mutans [2] turned out to be 12.1%; in the data set on Streptococcus mutans [3], 19.8%; with Streptococcus mutans [4], 34.9%; in the data set with Staphylococcus aureus [5] it was 23%; in the data set on Staphylococcus aureus [6], 47.5%; in the data set on Staphylococcus aureus [7] it was 52.2%. Also, the Activity was 50.6% in the data set with Staphylococcus aureus [8]; 35.4% with Staphylococcus aureus [9]; 46.8% in the data set with Staphylococcus aureus [10]; 34.9% in the data set with Staphylococcus aureus [11]; 39.3% in the data set with Staphylococcus aureus [12]; 66.1% with Staphylococcus aureus [13]. Further, the Activity was 131% in the data set with Staphylococcus aureus [14]; -3% with Pseudomonas aeruginosa [15]; -4.8% with Pseudomonas aeruginosa [16]; -0.1% with Pseudomonas aeruginosa [17]; 0.8% in the data set on Pseudomonas aeruginosa [18]; -4.8% in the data set with Pseudomonas aeruginosa [19]. The Activity in the data set with Pseudomonas aeruginosa [20] is recorded as -8.9%; in the data set with Pseudomonas aeruginosa [21] it was -14%; in the data set with Pseudomonas aeruginosa [22], -12.1%; in the data set with Pseudomonas aeruginosa [23], -8.5%; in the data set on Pseudomonas aeruginosa [24] it was 7.8%; in data set [25], 13.2%. In addition, the Activity in [26] is listed as 10.3%; in data set [27], 11.9%; in data set [28] it was 4.9%; in data set [29], -4%; in [30], 4%; in data set [31], -3.1%. Moreover, the Activity in data set [32] is reported as 8.9%; in data set [33], 12.7%; in data set [34], 33.8%; in the data set with Streptococcus mutans [35], “Toxic”; in the data set with Streptococcus mutans [38], 10.2%; with Streptococcus mutans [39] it was 9.9%. The Activity in the data set with Streptococcus mutans [40] is recorded as -5.8%; with Streptococcus mutans [41], 0%; in the data set on Streptococcus mutans [42] it was 8.2%; with Streptococcus mutans [43] it was 5.2%; with Streptococcus mutans [44] it was -2.7%. Besides, the inhibition entry (in the data set with Pseudomonas aeruginosa [36]; in data set [37]) was “Dose-dependent effect” in each case. Also, the IC50 in the data set with Pseudomonas aeruginosa [36] (ATCC 27853, 20 h) is greater than 87.5 µg/mL; in data set [37] (ATCC 35547, 20 h), greater than 87.5 µg/mL.
